According to US12285406B1, “Method of treating cancer with a selenide” (priority 2024, dated 2025):
Converted amounts (≈) assume the structure as drawn.

Key:
[1] = tested on: human non-small cell lung cancer (A549); assay: Antitumor activity (growth inhibition, cytotoxic IC50) against A549; assay type: cell-based; details: for inhibition at 100 µg/mL: 100 μg/mL, read-out: growth inhibition percentage
IL-1β = assay: Protein expression level in MDA-MB-468 cells: IL-1β; assay type: cell-based, human; details: compared to the control (untreated) cells
BCL-2 = assay: Protein expression level in MDA-MB-468 cells: BCL-2; assay type: cell-based, human; details: compared to the control (untreated) cells
Caspase 8 = assay: Protein expression level in MDA-MB-468 cells: Caspase 8; assay type: cell-based, human; details: in comparison to the control (untreated) cells
[2] = tested on: colorectal carcinoma (HCT116); assay: Antitumor activity (growth inhibition) against HCT116; assay type: cell-based; details: Homo sapiens, HCT-116, 100 μg/mL, read-out: growth inhibition percentage
[3] = tested on: pharynx squamous carcinoma (FaDu); assay: Antitumor activity (growth inhibition, cytotoxic IC50) against FaDu; assay type: cell-based; details: Homo sapiens; for inhibition at 100 µg/mL: 100 μg/mL, read-out: growth inhibition percentage
IL-6 = assay: Protein expression level in MDA-MB-468 cells: IL-6; assay type: cell-based, human; details: compared to the control (untreated) cells
BAX = assay: Protein expression level in MDA-MB-468 cells: BAX; assay type: cell-based, human; details: in comparison to the control (untreated) cells
cervical cancer (HeLa) = assay: Antitumor activity (growth inhibition, cytotoxic IC50) against HeLa; assay type: cell-based; details: Homo sapiens; for inhibition at 100 µg/mL: 100 μg/mL, read-out: growth inhibition percentage
[4] = tested on: triple-negative breast cancer (MDA-MB-468); assay: Antitumor activity (growth inhibition, cytotoxic IC50) against MDA-MB-468; assay type: cell-based; details: Homo sapiens; for inhibition at 100 µg/mL: 100 μg/mL, read-out: growth inhibition percentage
COX-2 = assay: Protein expression level in MDA-MB-468 cells: COX-2; assay type: cell-based, human; details: compared to the control (untreated) cells
prostate cancer (PC3) = assay: Antitumor activity (growth inhibition) against PC3; assay type: cell-based; details: Homo sapiens, 100 μg/mL, read-out: growth inhibition percentage
Caspase 6 = assay: Protein expression level in MDA-MB-468 cells: Caspase 6; assay type: cell-based, human; details: in comparison to the control (untreated) cells
MMP2 = assay: Protein expression level in MDA-MB-468 cells: MMP2; assay type: cell-based, human; details: compared to the control (untreated) cells
MMP9 = assay: Protein expression level in MDA-MB-468 cells: MMP9; assay type: cell-based, human; details: compared to the control (untreated) cells
p53 = assay: Protein expression level in MDA-MB-468 cells: p53; assay type: cell-based, human; details: in comparison to the control (untreated) cells
Caspase 9 = assay: Protein expression level in MDA-MB-468 cells: Caspase 9; assay type: cell-based, human; details: in comparison to the control (untreated) cells
Caspase 3 = assay: Protein expression level in MDA-MB-468 cells: Caspase 3; assay type: cell-based, human; details: in comparison to the control (untreated) cells
[5] = tested on: human oral epithelial normal cell line (OEC); assay: Growth inhibition of normal cell line OEC; assay type: cell-based
[6] = read-out: cytotoxic inhibitory concentration 50 (IC50)

`N#C[Se]CCCN1C(=O)c2ccccc2C1=O` [DS128, 2-(3-selenocyanatopropyl) isoindoline-1,3-dione] was tested, and the inhibition at 100 µg/mL [1] was 77.7%, the IC50 [1, 6] was 5.4 µg/mL (≈ 18.4 µM) and the “downregulation of IL-1β” value (IL-1β) was 0.42 times. For the same compound, the “downregulation of BCL-2 protein” value (BCL-2) was 0.44 times, the “upregulation of Caspase 8 protein” value (Caspase 8) was 6.71 times and the inhibition at 100 µg/mL [2] was 78.5%. For the same compound, the inhibition at 100 µg/mL [3] was 83.8%, the IC50 [3, 6] was 5.46 µg/mL (≈ 18.6 µM) and the “downregulation of IL-6” value (IL-6) was 0.40 times. For the same compound, the “upregulation of BAX protein” value (BAX) was 1.68 times, the inhibition at 100 µg/mL (cervical cancer (HeLa)) was 75.1% and the IC50 (cervical cancer (HeLa); [6]) was 5.36 µg/mL (≈ 18.3 µM). The inhibition at 100 µg/mL [4] was 86%, the IC50 [4, 6] was 4.33 µg/mL (≈ 14.8 µM) and the “downregulation of COX-2” value (COX-2) was 0.48 times. The inhibition at 100 µg/mL (prostate cancer (PC3)) was 83.2%, the “upregulation of Caspase 6 protein” value (Caspase 6) was 2.46 times and the “downregulation of MMP2 protein” value (MMP2) was 0.43 times. For the same compound, the “downregulation of MMP9 protein” value (MMP9) was 0.47 times, the “upregulation of p53 protein” value (p53) was 1.77 times and the “upregulation of Caspase 9 protein” value (Caspase 9) was 2.00 times. For the same compound, the “upregulation of Caspase 3 protein” value (Caspase 3) was 1.27 times and the growth inhibition percentage [5] was 40.02%.
`COc1cccc2c1C(=O)c1c(O)c3c(c(O)c1C2=O)C[C@@](O)(C(=O)CO)C[C@@H]3O[C@H]1C[C@H](N)[C@H](O)[C@H](C)O1` [doxorubicin, reference compound] gave an inhibition at 100 µg/mL [1] of 86.4%, an inhibition at 100 µg/mL [2] of 71% and an inhibition at 100 µg/mL [3] of 92.9%. For the same compound, the inhibition at 100 µg/mL (cervical cancer (HeLa)) was 92.7%, the inhibition at 100 µg/mL [4] was 96% and the inhibition at 100 µg/mL (prostate cancer (PC3)) was 89.9%. For the same compound, the growth inhibition percentage [5] was 57.89%.
